According to patent US20240383875A1, “Benzimidazole Pyridine Derivatives” (Hoffmann-La Roche Inc., priority 2022, published 2024):

Columns and labels:
Type in all cases: biochemical
SIK3 = SIK3 (Homo sapiens, UniProt Q9Y2K2); test: Enzymatic activity assay SIK3, RapidFire mass spectrometry (phosphorylation of CHK-peptide); conditions: RapidFire MS, inhibition of SIK3; read-out: SIK3 RF IC50
Method in brief: (§1)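 Human SIK1/2/3, 5/0.5/1.5 nM; 12.5 mM HEPES pH 7.0, 10 mM Mg acetate, 0.005% BSA. 30 min cpd pre-inc, + CHK-peptide (10 μM soln) + ATP (100 μM soln), 45 min RT. Formic acid stop; RF-MS phospho ratio; IC50.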

SIK1 = SIK1 (Homo sapiens, UniProt P57059); test: Enzymatic activity assay SIK1, RapidFire mass spectrometry (phosphorylation of CHK-peptide); conditions: RapidFire MS, inhibition of SIK1; read-out: SIK1 RF IC50
Sequence of SIK1 (P57059 whole entry): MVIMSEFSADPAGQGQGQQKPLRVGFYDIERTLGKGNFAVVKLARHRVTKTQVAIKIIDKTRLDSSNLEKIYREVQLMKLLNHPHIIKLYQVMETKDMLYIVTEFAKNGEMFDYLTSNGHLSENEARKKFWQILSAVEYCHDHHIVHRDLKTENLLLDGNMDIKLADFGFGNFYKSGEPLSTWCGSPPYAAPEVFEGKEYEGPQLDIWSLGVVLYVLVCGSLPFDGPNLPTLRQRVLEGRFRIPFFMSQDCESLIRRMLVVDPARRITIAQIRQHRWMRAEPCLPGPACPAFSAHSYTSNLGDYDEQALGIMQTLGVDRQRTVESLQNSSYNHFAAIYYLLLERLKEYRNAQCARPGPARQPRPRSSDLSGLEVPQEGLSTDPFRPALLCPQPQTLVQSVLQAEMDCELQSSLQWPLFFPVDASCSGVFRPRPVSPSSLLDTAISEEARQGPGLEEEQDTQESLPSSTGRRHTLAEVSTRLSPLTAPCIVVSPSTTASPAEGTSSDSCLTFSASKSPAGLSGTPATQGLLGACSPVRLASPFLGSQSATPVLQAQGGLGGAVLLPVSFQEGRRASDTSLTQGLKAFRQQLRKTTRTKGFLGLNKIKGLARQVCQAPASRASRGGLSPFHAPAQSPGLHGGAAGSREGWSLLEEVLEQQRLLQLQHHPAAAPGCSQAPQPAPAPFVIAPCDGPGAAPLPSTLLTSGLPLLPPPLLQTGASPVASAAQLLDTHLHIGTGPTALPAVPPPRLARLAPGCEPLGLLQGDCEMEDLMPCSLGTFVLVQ
Method in brief: as §1

SIK2 = SIK2 (Homo sapiens, UniProt Q9H0K1); test: Enzymatic activity assay SIK2, RapidFire mass spectrometry (phosphorylation of CHK-peptide); conditions: RapidFire MS, inhibition of SIK2; read-out: SIK2 RF IC50
Sequence of SIK2 (Q9H0K1 whole entry): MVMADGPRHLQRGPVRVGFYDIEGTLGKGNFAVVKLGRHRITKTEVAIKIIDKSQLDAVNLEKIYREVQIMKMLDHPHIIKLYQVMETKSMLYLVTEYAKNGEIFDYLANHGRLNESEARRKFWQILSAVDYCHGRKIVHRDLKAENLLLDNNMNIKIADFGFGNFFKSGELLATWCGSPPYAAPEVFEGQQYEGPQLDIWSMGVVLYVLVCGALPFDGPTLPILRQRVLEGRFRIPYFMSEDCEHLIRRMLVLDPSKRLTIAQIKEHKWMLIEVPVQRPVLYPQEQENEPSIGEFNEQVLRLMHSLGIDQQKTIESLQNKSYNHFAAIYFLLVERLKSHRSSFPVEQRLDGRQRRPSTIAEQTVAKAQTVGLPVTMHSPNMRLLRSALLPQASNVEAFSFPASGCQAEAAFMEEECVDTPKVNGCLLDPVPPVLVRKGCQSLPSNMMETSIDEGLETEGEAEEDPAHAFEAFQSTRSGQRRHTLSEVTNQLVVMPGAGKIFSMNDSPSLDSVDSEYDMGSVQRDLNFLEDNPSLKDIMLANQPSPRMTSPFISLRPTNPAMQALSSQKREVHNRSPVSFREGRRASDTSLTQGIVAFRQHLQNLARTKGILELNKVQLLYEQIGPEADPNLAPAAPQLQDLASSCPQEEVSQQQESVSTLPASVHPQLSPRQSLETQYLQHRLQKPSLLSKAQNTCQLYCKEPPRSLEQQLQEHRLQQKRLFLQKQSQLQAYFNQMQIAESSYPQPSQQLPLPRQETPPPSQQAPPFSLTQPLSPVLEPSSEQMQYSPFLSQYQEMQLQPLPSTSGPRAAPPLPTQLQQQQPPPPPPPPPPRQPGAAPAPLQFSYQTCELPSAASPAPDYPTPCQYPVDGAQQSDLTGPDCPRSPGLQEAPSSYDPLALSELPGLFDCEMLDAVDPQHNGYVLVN
Method in brief: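 Read-out is the summed phospho-species fraction of CHK-peptide by RapidFire mass spectrometry, normalized between DMSO and 1 μM YKL-05-099. The reaction used 0.5 nM SIK2, 100 μM ATP and 10 μM peptide solutions in HEPES pH 7.0/10 mM magnesium acetate for 45 min at ambient temperature.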

Sequence of SIK3 (Q9Y2K2 whole entry): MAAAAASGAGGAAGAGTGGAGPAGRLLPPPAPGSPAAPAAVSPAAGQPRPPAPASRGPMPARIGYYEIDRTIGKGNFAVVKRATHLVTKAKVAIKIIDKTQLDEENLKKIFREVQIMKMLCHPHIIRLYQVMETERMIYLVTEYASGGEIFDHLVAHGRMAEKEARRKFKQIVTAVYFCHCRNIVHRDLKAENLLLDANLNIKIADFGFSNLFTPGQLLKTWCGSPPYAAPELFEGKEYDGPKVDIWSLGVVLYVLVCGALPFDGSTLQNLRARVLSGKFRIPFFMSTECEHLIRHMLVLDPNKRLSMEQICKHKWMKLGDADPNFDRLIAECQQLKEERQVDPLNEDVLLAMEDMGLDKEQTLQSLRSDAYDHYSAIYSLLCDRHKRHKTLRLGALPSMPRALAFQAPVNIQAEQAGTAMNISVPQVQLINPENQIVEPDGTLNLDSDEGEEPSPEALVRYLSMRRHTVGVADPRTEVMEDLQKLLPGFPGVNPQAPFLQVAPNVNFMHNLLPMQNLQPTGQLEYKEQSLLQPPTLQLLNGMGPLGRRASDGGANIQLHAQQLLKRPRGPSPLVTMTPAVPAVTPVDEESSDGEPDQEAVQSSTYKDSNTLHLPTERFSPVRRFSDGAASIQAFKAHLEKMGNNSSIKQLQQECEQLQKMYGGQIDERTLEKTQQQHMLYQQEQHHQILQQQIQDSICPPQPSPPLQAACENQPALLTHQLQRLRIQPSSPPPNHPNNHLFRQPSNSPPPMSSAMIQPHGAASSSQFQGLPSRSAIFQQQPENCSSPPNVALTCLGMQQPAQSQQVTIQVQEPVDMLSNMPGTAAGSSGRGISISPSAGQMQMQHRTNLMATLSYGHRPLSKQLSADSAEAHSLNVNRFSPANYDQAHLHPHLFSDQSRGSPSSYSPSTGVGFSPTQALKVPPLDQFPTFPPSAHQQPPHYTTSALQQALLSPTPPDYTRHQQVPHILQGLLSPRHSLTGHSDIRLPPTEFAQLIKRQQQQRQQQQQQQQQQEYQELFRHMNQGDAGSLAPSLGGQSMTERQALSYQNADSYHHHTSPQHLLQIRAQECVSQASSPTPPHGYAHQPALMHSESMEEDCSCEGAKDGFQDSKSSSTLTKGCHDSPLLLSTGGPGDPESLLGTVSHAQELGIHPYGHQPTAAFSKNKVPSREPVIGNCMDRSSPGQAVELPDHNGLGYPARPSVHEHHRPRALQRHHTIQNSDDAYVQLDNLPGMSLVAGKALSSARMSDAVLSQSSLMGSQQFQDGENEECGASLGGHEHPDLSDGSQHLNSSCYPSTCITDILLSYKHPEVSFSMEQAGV

| IC50 (SIK3) [nM] | IC50 (SIK1) [nM] | IC50 (SIK2) [nM] | Compound |
| --- | --- | --- | --- |
| 371 | 245 | 171 | Cc1ccc(Nc2ccc3ncn(-c4ccc(C(O)C(F)F)c(-n5nc(C#N)cc5C)n4)c3c2)nn1 (stereo not drawn) [Example 199, 1-[3-(2,2-Difluoro-1-hydroxy-ethyl)-6-[6-[(6-methylpyridazin-3-yl)amino]benzimidazol-1-yl]-2-pyridyl]-5-methyl-pyrazole-3-carbonitrile] |
| 228 | 65 | 74.5 | Cc1ccc(Nc2ccc3ncn(-c4ccc(C(C)O)c(N5CC[C@H]6NCC[C@@H]65)n4)c3c2)nn1 (stereo partly drawn) [Example 126, 1-[6-[6-[(6-Methylpyridazin-3-yl)amino]benzimidazol-1-yl]-2-[(3aS,6aR)-2,3,3a,5,6,6a-hexahydro-1H-pyrrolo[3,2-b]pyrrol-4-yl]-3-pyridyl]ethanol; formic acid] |
| 26.5 | 361 | 90.2 | Cc1cc(C#N)nn1-c1nc(-n2cnc3cc(NC4CCN(C)C(=O)C4)ccc32)ccc1C(C)O (stereo not drawn) [Example 155, 1-[3-(1-Hydroxyethyl)-6-[5-[(2-keto-1-methyl-4-piperidyl)amino]benzimidazol-1-yl]-2-pyridyl]-5-methyl-pyrazole-3-carbonitrile] |
| 1.4 | 20 | 3.1 | Cc1cc(C#N)nn1-c1nc(-n2cnc3cc(Nc4ccc(OCC(F)F)nn4)ccc32)ccc1C(C)O (stereo not drawn) [Example 195, 1-[6-[5-[[6-(2,2-Difluoroethoxy)pyridazin-3-yl]amino]benzimidazol-1-yl]-3-(1-hydroxyethyl)-2-pyridyl]-5-methyl-pyrazole-3-carbonitrile] |
| 0.8 | 11 | 1.4 | Cc1nnc(Nc2ccc3c(c2)ncn3-c2ccc(C(C)O)c(-n3nc(C#N)cc3C)n2)s1 (stereo not drawn) [Example 111, 1-[3-(1-Hydroxyethyl)-6-[5-[(5-methyl-1,3,4-thiadiazol-2-yl)amino]benzimidazol-1-yl]-2-pyridyl]-5-methyl-pyrazole-3-carbonitrile] |
| 746 | 5410 | 1640 | Cc1ccc(Nc2ccc3ncn(-c4ccc(C(C)O)c(N5CCN(CC(F)(F)F)C(=O)C5)n4)c3c2)nn1 (stereo not drawn) [Example 137, 4-[3-(1-Hydroxyethyl)-6-[6-[(6-methylpyridazin-3-yl)amino]benzimidazol-1-yl]-2-pyridyl]-1-(2,2,2-trifluoroethyl)piperazin-2-one] |
| 85.2 | 613 | 135 | Cc1ccc(Nc2ccc3ncn(-c4ccc(C(C)O)c(-n5cc(C)c(C#N)n5)n4)c3c2)nn1 (stereo not drawn) [Example 169, 1-[3-(1-Hydroxyethyl)-6-[6-[(6-methylpyridazin-3-yl)amino]benzimidazol-1-yl]-2-pyridyl]-4-methyl-pyrazole-3-carbonitrile; formic acid] |
| 65.1 | 70 | 52.4 | Cc1ccc(Nc2cc3c(cc2F)ncn3-c2ccc(CO)c(-n3nc(C#N)cc3C)n2)nn1 [Example 314, 1-[6-[5-fluoro-6-[(6-methylpyridazin-3-yl)amino]benzimidazol-1-yl]-3-(hydroxymethyl)-2-pyridyl]-5-methyl-pyrazole-3-carbonitrile] |
| 1850 | 2620 | 2090 | Cc1ccc(Nc2ccc3ncn(-c4ccc(C(C)O)c(N(C)CC5(C#N)CC5)n4)c3c2)nn1 (stereo not drawn) [Example 172, 1-[[[3-(1-hydroxyethyl)-6-[6-[(6-methylpyridazin-3-yl)amino]benzimidazol-1-yl]-2-pyridyl]-methyl-amino]methyl]cyclopropanecarbonitrile] |
| 0.4 | 30 | 0.4 | Cc1ccc(Nc2ccc3c(c2)ncn3-c2ccc(C(C)O)c(-n3nc(C(F)F)cc3C#N)n2)nn1 (stereo not drawn) [Example 303, 5-(difluoromethyl)-2-[3-(1-hydroxyethyl)-6-[5-[(6-methylpyridazin-3-yl)amino]benzimidazol-1-yl]-2-pyridyl]pyrazole-3-carbonitrile] |
